From patent US20250388565A1, “ESTROGEN RECEPTOR ALPHA DEGRADERS AND METHODS OF USE THEREOF” (Relay Therapeutics, Inc., priority 2022, published 2025)

What follows are molecules tested against T1, ERα protein (HiBiT-tagged) in ESR1_HiBiT KI MCF7 cells (Homo sapiens, UniProt P03372) (assay: Nano Glo HiBiT Lytic Degradation Assay). Conditions: 6 hours with compound, 14-point dose response 1:3, bell-shape curve fit, half-maximal effect of first Hill model, read-out: MCF7 ESR1 HiBiT - (DC50).
T1 sequence (P03372 1-595): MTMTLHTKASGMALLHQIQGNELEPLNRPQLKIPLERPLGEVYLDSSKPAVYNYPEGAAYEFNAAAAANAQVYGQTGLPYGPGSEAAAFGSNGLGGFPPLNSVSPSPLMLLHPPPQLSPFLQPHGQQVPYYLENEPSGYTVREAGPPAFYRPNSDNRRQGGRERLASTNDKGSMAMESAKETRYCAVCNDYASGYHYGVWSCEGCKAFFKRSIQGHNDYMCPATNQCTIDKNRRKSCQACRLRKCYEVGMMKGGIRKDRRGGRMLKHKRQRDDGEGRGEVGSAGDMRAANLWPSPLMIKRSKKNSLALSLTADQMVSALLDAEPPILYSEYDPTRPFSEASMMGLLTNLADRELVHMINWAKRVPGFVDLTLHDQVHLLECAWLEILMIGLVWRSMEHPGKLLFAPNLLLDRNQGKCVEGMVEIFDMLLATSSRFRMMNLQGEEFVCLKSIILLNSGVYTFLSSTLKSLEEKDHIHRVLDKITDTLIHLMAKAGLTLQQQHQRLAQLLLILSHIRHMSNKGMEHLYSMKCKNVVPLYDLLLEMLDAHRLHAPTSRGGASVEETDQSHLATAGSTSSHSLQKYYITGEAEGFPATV
Assay type: cell-based
Outline: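 Lytic Nano-Glo HiBiT luminescence quantified ERα remaining after a 6 h, 37° C compound exposure of MCF7 cells carrying endogenous HiBiT-tagged ESR1. Dosing used 14 threefold dilutions from a 10 mM DMSO stock (0.1% DMSO final), run in duplicate. Signals were corrected for cell-free background and expressed relative to DMSO, and DC50 came from a bell-shaped curve fit (first Hill model half-maximum).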

Row | DC50 | SMILES
1 | ≥ 10000 nM | O=C1CC[C@H](N2Cc3cc(N4CCN(CC5CCN(c6ccc([C@H]7c8ccc(O)cc8CC[C@H]7c7cccc(O)c7)cc6)CC5)CC4)ccc3C2=O)C(=O)N1 [Compound I-127, (3S)-3-[5-[4-[[1-[4-[(1S,2R)-6-hydroxy-2-(3-hydroxyphenyl)tetralin-1-yl]phenyl]-4-piperidyl]methyl]piperazin-1-yl]-1-oxo-isoindolin-2-yl]piperidine-2,6-dione]
2 | 0.0491 nM | O=C1CC[C@H](N2Cc3cc(N4CCN(CC5CCN(c6ccc([C@@H]7c8ccc(O)cc8CC[C@@H]7c7ccncc7)cc6)CC5)CC4)ccc3C2=O)C(=O)N1 [Compound I-132, (S)-3-(5-(4-((1-(4-((1R,2S)-6-hydroxy-2-(pyridin-4-yl)-1,2,3,4-tetrahydronaphthalen-1-yl)phenyl)piperidin-4-yl)methyl)piperazin-1-yl)-1-oxoisoindolin-2-yl)piperidine-2,6-dione]
3 | ≥ 10000 nM | O=C1CC[C@H](N2Cc3cc(N4CCN(CC5CCN(c6ccc([C@H]7c8ccc(O)cc8CC[C@H]7C7CCCCCC7)cc6)CC5)CC4)ccc3C2=O)C(=O)N1 [Compound I-134, (3S)-3-[5-[4-[[1-[4-[(1S,2S)-2-cycloheptyl-6-hydroxy-tetralin-1-yl]phenyl]-4-piperidyl]methyl]piperazin-1-yl]-1-oxo-isoindolin-2-yl]piperidine-2,6-dione]
4 | ≥ 10000 nM | O=C1CC[C@H](N2Cc3cc(N4CCN(CC5CCN(c6ccc([C@H]7c8ccc(O)cc8CC[C@H]7C7CCCCC7)c(F)c6)CC5)CC4)ccc3C2=O)C(=O)N1 [Compound I-136, (S)-3-(5-(4-((1-(4-((1R,2S)-2-cyclohexyl-6-hydroxy-1,2,3,4-tetrahydronaphthalen-1-yl)-3-fluorophenyl)piperidin-4-yl)methyl)piperazin-1-yl)-1-oxoisoindolin-2-yl)piperidine-2,6-dione]
5 | ≥ 10000 nM | O=C1CC[C@H](N2Cc3cc(N4CCN(CC5CCN(c6ccc([C@@H]7c8ccc(O)cc8CC[C@@H]7C7CCCCC7)c(F)c6)CC5)CC4)ccc3C2=O)C(=O)N1 [Compound I-137, (S)-3-(5-(4-((1-(4-((1S,2R)-2-cyclohexyl-6-hydroxy-1,2,3,4-tetrahydronaphthalen-1-yl)-3-fluorophenyl)piperidin-4-yl)methyl)piperazin-1-yl)-1-oxoisoindolin-2-yl)piperidine-2,6-dione]
6 | ≥ 10000 nM | Cc1cc(N2CCC(CN3CCN(c4ccc5c(c4)CN([C@H]4CCC(=O)NC4=O)C5=O)CC3)CC2)ccc1[C@H]1c2ccc(O)cc2CC[C@H]1c1ccccc1 [Compound I-138, (S)-3-(5-(4-((1-(4-((1S,2R)-6-hydroxy-2-phenyl-1,2,3,4-tetrahydronaphthalen-1-yl)-3-methylphenyl)piperidin-4-yl)methyl)piperazin-1-yl)-1-oxoisoindolin-2-yl)piperidine-2,6-dione]
7 | 0.76 nM | Cc1cc(N2CCC(CN3CCN(c4ccc5c(c4)CN([C@H]4CCC(=O)NC4=O)C5=O)CC3)CC2)ccc1[C@@H]1c2ccc(O)cc2CC[C@@H]1c1ccccc1 [Compound I-139, (S)-3-(5-(4-((1-(4-((1R,2S)-6-hydroxy-2-phenyl-1,2,3,4-tetrahydronaphthalen-1-yl)-3-methylphenyl)piperidin-4-yl)methyl)piperazin-1-yl)-1-oxoisoindolin-2-yl)piperidine-2,6-dione]
8 | ≥ 10000 nM | Cc1cc(N2CCC(CN3CCN(c4ccc5c(c4)CN([C@H]4CCC(=O)NC4=O)C5=O)CC3)CC2)ccc1[C@H]1c2ccc(O)cc2CC[C@H]1C1CCCCC1 [Compound I-140, (S)-3-(5-(4-((1-(4-((1S,2S)-2-cyclohexyl-6-hydroxy-1,2,3,4-tetrahydronaphthalen-1-yl)-3-methylphenyl)piperidin-4-yl)methyl)piperazin-1-yl)-1-oxoisoindolin-2-yl)piperidine-2,6-dione]
9 | 2 nM | Cc1cc(N2CCC(CN3CCN(c4ccc5c(c4)CN([C@H]4CCC(=O)NC4=O)C5=O)CC3)CC2)ccc1[C@@H]1c2ccc(O)cc2CC[C@@H]1C1CCCCC1 [Compound I-141, (S)-3-(5-(4-((1-(4-((1R,2R)-2-cyclohexyl-6-hydroxy-1,2,3,4-tetrahydronaphthalen-1-yl)-3-methylphenyl)piperidin-4-yl)methyl)piperazin-1-yl)-1-oxoisoindolin-2-yl)piperidine-2,6-dione]
10 | ≥ 10000 nM | O=C1CC[C@H](N2Cc3cc(N4CCN(CC5CCN(c6ccc([C@H]7c8ccc(O)cc8CCC78CCCCC8)cc6)CC5)CC4)ccc3C2=O)C(=O)N1 [Compound I-142]
11 | ≥ 10000 nM | COc1cc(N2CCC(CN3CCN(c4ccc5c(c4)CN([C@H]4CCC(=O)NC4=O)C5=O)CC3)CC2)ccc1[C@H]1c2ccc(O)cc2CC[C@H]1c1ccccc1 [Compound I-143, (S)-3-(5-(4-((1-(4-((1R,2R)-6-hydroxy-2-phenyl-1,2,3,4-tetrahydronaphthalen-1-yl)-3-methoxyphenyl)piperidin-4-yl)methyl)piperazin-1-yl)-1-oxoisoindolin-2-yl)piperidine-2,6-dione]
12 | 0.37 nM | COc1cc(N2CCC(CN3CCN(c4ccc5c(c4)CN([C@H]4CCC(=O)NC4=O)C5=O)CC3)CC2)ccc1[C@@H]1c2ccc(O)cc2CC[C@@H]1c1ccccc1 [Compound I-144, (S)-3-(5-(4-((1-(4-((1S,2S)-6-hydroxy-2-phenyl-1,2,3,4-tetrahydronaphthalen-1-yl)-3-methoxyphenyl)piperidin-4-yl)methyl)piperazin-1-yl)-1-oxoisoindolin-2-yl)piperidine-2,6-dione]
13 | ≥ 10000 nM | O=C1CC[C@H](N2Cc3cc(N4CCN(CC5CCN(c6ccc([C@H]7c8ccc(O)cc8CC[C@H]7C7CCC8(CC7)CC8)cc6)CC5)CC4)ccc3C2=O)C(=O)N1 [Compound I-145]
14 | 3 nM | O=C1CC[C@H](N2Cc3cc(N4CCN(CC5CCN(c6ccc([C@@H]7c8ccc(O)cc8CC[C@@H]7C7CCC8(CC7)CC8)cc6)CC5)CC4)ccc3C2=O)C(=O)N1 [Compound I-146]
15 | 0.42 nM | C[C@]1(c2ccccc2)CCc2cc(O)ccc2[C@H]1c1ccc(N2CCC(CN3CCN(c4ccc5c(c4)CN([C@H]4CCC(=O)NC4=O)C5=O)CC3)CC2)cc1 [Compound I-147, (S)-3-(5-(4-((1-(4-((1S,2S)-6-hydroxy-2-methyl-2-phenyl-1,2,3,4-tetrahydronaphthalen-1-yl)phenyl)piperidin-4-yl)methyl)piperazin-1-yl)-1-oxoisoindolin-2-yl)piperidine-2,6-dione]

Row | SMILES | DC50
16 | O=C1CC[C@H](N2Cc3cc(N4CCN(CC5CCN(c6ccc([C@H]7c8ccc(O)cc8CC[C@H]7c7ccc(O)cc7)cc6)CC5)CC4)ccc3C2=O)C(=O)N1 [Compound I-130, (35)-3-[5-[4-[[1-[4-[(1S, 2R)-6-hydroxy-2-(4-hydroxyphenyl)tetralin-1-yl]phenyl]-4-piperidyl]methyl]piperazin-1-yl]-1-oxo-isoindolin-2-yl]piperidine-2,6-dione] | ≥ 10000 nM
17 | O=C1CC[C@H](N2Cc3cc(N4CCN(CC5CCN(c6ccc([C@@H]7c8ccc(O)cc8CC[C@@H]7c7ccc(O)cc7)cc6)CC5)CC4)ccc3C2=O)C(=O)N1 [Compound I-131, (35)-3-[5-[4-[[1-[4-[(1R, 2S)-6-hydroxy-2-(4-hydroxyphenyl)tetralin-1-yl]phenyl]-4-piperidyl]methyl]piperazin-1-yl]-1-oxo-isoindolin-2-yl]piperidine-2,6-dione] | 0.03 nM
